We go through eleven compounds from ChEMBL document CHEMBL1201862, “PubChem BioAssay data set” (2004).

The source made the active and inactive calls.

Assay [1] deals with T1, Estrogen receptor beta (Homo sapiens, UniProt Q92731).
For assay [2], the target named is T1, Estrogen receptor beta. The assay can be described thus: ERβ–SRC-3 coactivator interaction inhibitors, confirmation, orthogonal assay, biochemical, ELISA, streptavidin-HRP readout (AID 1060).
Assay [3] in a line: Shn3 3'UTR reporter inhibitors, dose response, cell-based, Clone20 osteoblasts, firefly luciferase, cherry-picked (AID 624132).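 Further: firefly luciferase luminescence from reporter carrying the Shn3 3'UTR in osteoblasts.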 The format is functional.
The nature of assay [4]: control 3'UTR Renilla luciferase suppression, dose response, counter-screen for Shn3 inhibitor project, cell-based, Clone20-Shn3RL, cherry-picked (AID 624133). Type of assay: functional.
A short description of assay [5]: HepG2 cell cytotoxicity, dose response, cytotoxicity control for Shn3 inhibitor project, CellTiter-Glo, cherry-picked (AID 624134). Type of assay: functional, cell-based. (Cellular ATP, detected with luciferase, serves as a proxy for viable cell number.)
Assay [6] in a line: THP-1 cell cytotoxicity, dose response, cytotoxicity control for Vif-APOBEC3G degradation inhibitor project, THP-1 cells (AID 1117359). Type of assay: functional. The following applies: Human immunodeficiency virus 1, THP-1.
The next assay addresses Cytochrome P450 2D6 (Homo sapiens, UniProt P10635).
A further assay concerns the target T2, Cytochrome P450 1A2 (Homo sapiens, UniProt P05177).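 Further: PubChem cytochrome P450 panel assay, CYP1A2 panel member.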
T2 sequence (P05177 whole entry): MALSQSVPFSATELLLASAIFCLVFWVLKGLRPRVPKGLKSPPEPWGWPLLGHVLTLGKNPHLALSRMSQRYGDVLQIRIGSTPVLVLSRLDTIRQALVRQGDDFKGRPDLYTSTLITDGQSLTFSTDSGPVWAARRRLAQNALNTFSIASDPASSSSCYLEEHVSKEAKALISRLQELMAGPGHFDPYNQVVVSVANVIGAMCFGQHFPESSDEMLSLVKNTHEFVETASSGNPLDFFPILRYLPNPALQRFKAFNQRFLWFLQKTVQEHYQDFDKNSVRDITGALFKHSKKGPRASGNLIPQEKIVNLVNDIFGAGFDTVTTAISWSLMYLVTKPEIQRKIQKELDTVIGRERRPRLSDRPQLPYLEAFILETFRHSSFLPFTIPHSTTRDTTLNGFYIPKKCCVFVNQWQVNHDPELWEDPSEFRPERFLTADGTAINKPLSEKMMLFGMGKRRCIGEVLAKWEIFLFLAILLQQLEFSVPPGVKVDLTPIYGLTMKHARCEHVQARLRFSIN

The target in assay [7] is T3, Sentrin-specific protease 8 (Homo sapiens, UniProt Q96LD8).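 Further: luminescence read-out of SENP8 inhibition, dose-response confirmation following an ultra-high-throughput screen.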
T3 sequence (Q96LD8 whole entry): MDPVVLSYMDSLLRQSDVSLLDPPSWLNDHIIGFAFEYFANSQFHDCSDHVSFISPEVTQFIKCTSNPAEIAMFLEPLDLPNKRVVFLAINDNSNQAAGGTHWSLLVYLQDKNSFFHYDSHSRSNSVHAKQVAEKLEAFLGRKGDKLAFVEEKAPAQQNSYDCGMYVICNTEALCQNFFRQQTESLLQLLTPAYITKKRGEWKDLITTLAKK
Type of assay: functional.

The next assay concerns the target T4, Caspase-3 (Homo sapiens, UniProt P42574).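 Further: Dose-response selectivity test against caspase-3 for candidate inhibitors of sentrin-specific proteases (SENPs).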
T4 sequence (P42574 whole entry): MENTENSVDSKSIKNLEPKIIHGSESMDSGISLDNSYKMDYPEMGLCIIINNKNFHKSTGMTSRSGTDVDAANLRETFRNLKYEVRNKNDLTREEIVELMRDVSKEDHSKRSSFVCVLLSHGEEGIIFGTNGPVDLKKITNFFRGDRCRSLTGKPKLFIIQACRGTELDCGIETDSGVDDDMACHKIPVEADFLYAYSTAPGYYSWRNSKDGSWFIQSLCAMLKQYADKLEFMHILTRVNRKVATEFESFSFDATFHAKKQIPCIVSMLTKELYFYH
The format is functional.

The target in assay [8] is T5, Sentrin-specific protease 6 (Homo sapiens, UniProt Q9GZR1).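 Further: Luminescence-based dose-response confirmatory assay of SENP6 inhibition, following up an ultra-high-throughput screen.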
T5 sequence (Q9GZR1 whole entry): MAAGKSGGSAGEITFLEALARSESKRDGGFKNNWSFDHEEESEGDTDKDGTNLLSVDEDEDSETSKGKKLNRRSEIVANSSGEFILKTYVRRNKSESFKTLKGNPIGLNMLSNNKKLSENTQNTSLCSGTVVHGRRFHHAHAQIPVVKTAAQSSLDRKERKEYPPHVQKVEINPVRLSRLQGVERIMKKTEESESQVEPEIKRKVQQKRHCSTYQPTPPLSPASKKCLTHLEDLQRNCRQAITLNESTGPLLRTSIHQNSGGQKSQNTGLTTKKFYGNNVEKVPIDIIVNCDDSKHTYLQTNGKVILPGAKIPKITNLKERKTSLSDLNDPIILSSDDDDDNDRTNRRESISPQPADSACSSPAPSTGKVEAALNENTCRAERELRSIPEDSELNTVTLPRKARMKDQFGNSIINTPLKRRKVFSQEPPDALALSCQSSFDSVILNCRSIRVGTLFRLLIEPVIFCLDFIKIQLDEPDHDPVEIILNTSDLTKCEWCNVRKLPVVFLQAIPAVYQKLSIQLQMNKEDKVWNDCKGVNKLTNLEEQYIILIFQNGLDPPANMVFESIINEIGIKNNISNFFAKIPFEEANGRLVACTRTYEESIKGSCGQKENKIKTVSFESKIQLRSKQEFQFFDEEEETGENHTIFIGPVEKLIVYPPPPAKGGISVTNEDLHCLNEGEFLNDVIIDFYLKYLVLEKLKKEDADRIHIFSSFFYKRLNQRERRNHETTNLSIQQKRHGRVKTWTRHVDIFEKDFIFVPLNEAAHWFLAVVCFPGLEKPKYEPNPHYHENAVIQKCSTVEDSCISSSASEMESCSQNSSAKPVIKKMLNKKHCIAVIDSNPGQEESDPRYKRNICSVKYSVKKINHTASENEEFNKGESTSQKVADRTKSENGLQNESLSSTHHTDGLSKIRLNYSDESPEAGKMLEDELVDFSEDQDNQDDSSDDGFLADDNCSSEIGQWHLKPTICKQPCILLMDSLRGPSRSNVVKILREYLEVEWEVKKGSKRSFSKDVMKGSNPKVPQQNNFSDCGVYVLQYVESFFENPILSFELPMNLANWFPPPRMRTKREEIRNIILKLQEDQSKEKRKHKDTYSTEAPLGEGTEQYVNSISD
Type of assay: functional.

Assay [9] deals with T6, Sentrin-specific protease 7 (Homo sapiens, UniProt Q9BQF6).
T6 sequence (Q9BQF6 whole entry): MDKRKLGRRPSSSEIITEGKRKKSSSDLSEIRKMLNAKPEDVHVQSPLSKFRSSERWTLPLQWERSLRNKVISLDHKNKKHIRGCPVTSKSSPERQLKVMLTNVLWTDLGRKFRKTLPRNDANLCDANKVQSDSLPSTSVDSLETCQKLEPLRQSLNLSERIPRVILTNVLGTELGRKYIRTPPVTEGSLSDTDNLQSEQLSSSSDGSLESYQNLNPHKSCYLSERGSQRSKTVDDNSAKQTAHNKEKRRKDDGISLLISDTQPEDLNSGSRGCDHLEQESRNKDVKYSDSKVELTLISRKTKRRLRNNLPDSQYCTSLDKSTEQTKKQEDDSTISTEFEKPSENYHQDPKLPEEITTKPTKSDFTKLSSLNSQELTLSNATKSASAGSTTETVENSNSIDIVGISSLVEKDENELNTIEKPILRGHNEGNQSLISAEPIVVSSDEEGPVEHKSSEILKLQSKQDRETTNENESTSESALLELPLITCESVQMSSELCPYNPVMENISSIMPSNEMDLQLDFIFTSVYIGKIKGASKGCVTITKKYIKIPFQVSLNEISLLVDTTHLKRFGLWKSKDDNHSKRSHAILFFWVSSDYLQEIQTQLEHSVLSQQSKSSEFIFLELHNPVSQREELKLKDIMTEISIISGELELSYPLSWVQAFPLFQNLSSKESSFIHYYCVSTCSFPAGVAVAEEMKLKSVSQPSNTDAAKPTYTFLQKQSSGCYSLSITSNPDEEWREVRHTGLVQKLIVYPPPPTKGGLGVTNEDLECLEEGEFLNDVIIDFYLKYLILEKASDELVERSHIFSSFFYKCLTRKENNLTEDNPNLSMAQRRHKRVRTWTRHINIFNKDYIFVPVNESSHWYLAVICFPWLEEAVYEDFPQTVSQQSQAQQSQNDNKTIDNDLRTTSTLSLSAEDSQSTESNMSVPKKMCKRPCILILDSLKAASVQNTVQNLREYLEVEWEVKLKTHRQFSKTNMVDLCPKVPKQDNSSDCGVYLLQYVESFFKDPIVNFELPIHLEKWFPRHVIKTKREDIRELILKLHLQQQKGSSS
The format is functional.

The target of the next assay is Cytochrome P450 2C19 (Homo sapiens, UniProt P33261). Nature of the assay: Cytochrome panel assay with activity outcomes. Panel member name: p450-cyp2c19 Compounds with AC50 equal or less than 10 uM are considered active. The following applies: read-out: AC50. The format is functional.
Cytochrome P450 2C19, sequence (P33261 whole entry, the tested form may be a part): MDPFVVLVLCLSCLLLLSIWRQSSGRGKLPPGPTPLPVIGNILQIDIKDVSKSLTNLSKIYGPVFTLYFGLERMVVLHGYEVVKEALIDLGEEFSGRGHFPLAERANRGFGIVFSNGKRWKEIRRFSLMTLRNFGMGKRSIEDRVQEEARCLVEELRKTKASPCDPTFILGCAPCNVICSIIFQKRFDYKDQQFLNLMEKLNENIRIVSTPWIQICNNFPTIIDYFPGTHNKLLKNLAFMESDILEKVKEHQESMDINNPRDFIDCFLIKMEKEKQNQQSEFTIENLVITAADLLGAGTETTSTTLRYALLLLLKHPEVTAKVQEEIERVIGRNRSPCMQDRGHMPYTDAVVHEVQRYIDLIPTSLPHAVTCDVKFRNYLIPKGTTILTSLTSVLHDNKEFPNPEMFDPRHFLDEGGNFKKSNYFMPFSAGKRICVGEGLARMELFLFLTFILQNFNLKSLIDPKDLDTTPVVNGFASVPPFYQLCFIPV
In assay [10] the target is T7, Carboxy-terminal domain RNA polymerase II polypeptide A small phosphatase 1 (Homo sapiens, UniProt Q9GZU7).
T7 sequence (Q9GZU7 whole entry): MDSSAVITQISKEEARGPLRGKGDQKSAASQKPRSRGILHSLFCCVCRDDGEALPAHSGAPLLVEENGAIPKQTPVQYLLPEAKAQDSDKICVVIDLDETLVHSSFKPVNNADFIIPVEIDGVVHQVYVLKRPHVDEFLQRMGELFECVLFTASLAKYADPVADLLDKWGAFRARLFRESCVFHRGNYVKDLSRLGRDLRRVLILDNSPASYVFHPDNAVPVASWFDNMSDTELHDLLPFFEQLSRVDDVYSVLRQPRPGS
Nature of the assay: inhibitors of CTDSP1, concentration-response testing, biochemical assay, absorbance-based, actives from ultra-high-throughput screening (AID 540297). The format is functional.

For the next assay, the system named is HEK293. The assay can be described thus: inhibitors of LMP1-driven NF-kB reporter, dose response, cell-based, HEK293, luciferase, cherry-pick (AID 588343). Type of assay: functional. The following applies: Homo sapiens.

T1 sequence (Q92731 whole entry): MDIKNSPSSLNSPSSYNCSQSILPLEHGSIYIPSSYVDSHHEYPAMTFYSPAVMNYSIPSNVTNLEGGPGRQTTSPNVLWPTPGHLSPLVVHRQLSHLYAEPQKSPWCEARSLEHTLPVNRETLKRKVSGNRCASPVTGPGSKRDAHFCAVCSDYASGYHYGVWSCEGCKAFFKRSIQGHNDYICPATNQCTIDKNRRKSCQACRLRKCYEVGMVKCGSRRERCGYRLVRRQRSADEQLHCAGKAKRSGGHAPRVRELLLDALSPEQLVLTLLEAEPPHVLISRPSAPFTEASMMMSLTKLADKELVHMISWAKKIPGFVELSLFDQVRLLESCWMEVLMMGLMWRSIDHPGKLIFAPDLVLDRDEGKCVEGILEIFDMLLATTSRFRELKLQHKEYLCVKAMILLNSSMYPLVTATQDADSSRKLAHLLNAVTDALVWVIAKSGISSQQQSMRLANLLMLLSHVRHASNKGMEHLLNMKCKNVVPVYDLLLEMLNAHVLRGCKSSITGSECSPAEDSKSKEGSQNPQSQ
Cytochrome P450 2D6, sequence (P10635 whole entry): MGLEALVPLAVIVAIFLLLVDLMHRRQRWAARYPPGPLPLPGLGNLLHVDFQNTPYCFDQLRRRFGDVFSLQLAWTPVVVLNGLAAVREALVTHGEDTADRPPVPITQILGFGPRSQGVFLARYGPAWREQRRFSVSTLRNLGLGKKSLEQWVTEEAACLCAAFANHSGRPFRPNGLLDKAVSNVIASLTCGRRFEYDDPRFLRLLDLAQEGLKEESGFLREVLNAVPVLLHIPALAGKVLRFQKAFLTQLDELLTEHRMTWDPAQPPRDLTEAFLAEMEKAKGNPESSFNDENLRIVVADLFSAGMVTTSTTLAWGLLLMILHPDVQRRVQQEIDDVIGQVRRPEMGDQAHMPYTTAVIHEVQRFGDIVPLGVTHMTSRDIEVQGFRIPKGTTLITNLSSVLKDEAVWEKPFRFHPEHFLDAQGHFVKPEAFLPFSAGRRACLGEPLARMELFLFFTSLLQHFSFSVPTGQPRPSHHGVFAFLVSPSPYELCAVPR

As a reminder, the IC50 is the concentration needed to halve the response being measured. Take `CCOc1ccc2nc(NC(=O)CCC(=O)c3cccs3)sc2c1`: the IC50 was 9.84 µM (active) at Estrogen receptor beta [1] and 0.0637 µM (not active) at Estrogen receptor beta [2].
As a reminder, the AC50 is the concentration giving half of the maximal activity seen. As to `O=C1CSc2ccc(C(=O)Nc3cccc(S(=O)(=O)Nc4ccc(Br)cc4)c3)cc2N1`, the AC50 in assay [3] was 3.08 µM (active); in [4], 8.81 µM (active); in assay [5], 45.6 µM (active).
As a reminder, the CC50 is the concentration giving 50% cytotoxicity. For the compound `Cc1ccnc(NC(=O)c2ccc(Cl)c(S(=O)(=O)N3CCCC3)c2)c1`, in [6], the CC50 is > 40 µM (active).
`C/C(=N\OC(=O)c1ccccc1F)c1nccs1`: the half-maximal activity concentration (AC50) on Cytochrome P450 2D6 was 28.2 µM (inconclusive); on Cytochrome P450 1A2, 31.6 µM (inconclusive); on Cytochrome P450 2C19, 35.5 µM (inconclusive). Further, the IC50 in assay [7] was 62.9 µM (active); on Caspase-3, 71.1 µM (active); in assay [8], 17.2 µM (active); in assay [9] it was 2.97 µM (active).
For the compound `Cc1nc2ccc(NS(=O)(=O)c3ccc4c(c3)OCCO4)cc2s1`, the AC50 in [3] was 0.635 µM (active); in [4] it was > 70 µM (inactive); in assay [5], 4.15 µM (active).
In the case of `CC1C=CC=CC=CC=CC=CC=CC=CC(OC2OC(C)C(O)C(N)C2O)CC2OC(O)(CC(O)CC(O)C(O)CCC(O)CC(O)CC(=O)OC(C)C(C)C1O)CC(O)C2C(=O)O` (stereo not drawn), in assay [6], the 50% cytotoxic concentration (CC50) was 3.14 µM (active). Also, the IC50 in [10] was 1.17 µM (active).
Regarding `Cc1ccccc1/C=C\c1nc(O)c2ccccc2n1`, the half-inhibitory concentration (IC50) is 2.64 µM (active) in assay [7], 3.24 µM (active) on Caspase-3, 2.74 µM (active) in assay [8] and 2.16 µM (active) in assay [9].
With `COc1ccc(S(=O)(=O)N2CCN(C(=O)c3cc(-c4ccccc4OC)[nH]n3)CC2)cc1`, in assay [6], the CC50 is > 40 µM (active).
For the compound `CCOc1ccccc1-n1nnnc1SCC(=O)NC(=O)NCc1ccco1`, the IC50 was 7.76 µM (active) on Estrogen receptor beta [1] and 9.38 µM (not active) at Estrogen receptor beta [2].
With `Cc1cc(C(=O)COC(=O)c2cccc(NS(C)(=O)=O)c2)c(C)n1CC1CCCO1` (stereo not drawn), in the assay on HEK293, the AC50 was 3.15 µM (active).
`CC(=O)Nc1nonc1-c1nc2ccccc2n1N(C(C)=O)C(C)=O`: the concentration for half-maximal inhibition (IC50) on Estrogen receptor beta [1] is 2.75 µM (active); against Estrogen receptor beta [2], > 109 µM (not active).
